{
  "source": "patent US12257294B2",
  "about": "“Therapeutics for autoimmune disease: synthetic antigens” (DANMARKS TEKNISKE UNIVERSITET, priority 2018, dated 2025)",
  "key": {"NZB/W F1 mice": {"tested_on": "NZB/W F1 mice", "test": "SLE mice study, SLEDAI", "format": "in vivo", "conditions": "2 weeks of treatment and 2 weeks after", "experimental": "[…]1 in 1×PBS was administered by IV in the tail vain every 12 h over 2 weeks, at a conjugate dosage of 160 μg/kg animal weight for 10 nM concentration. 30 mice were tested; 80% were female; average age 20 week; average weight/median 20.2 g (18.4 g-23.1 g). […] (HQ) was used as control, PO, 2 mg/kg, every 24 h over 2 weeks."}, "[1]": {"test": "Scanning electron microscopy, nanoparticle size", "format": "physicochemical", "conditions": "SEM", "experimental": "Nanosight experiment: Nanosight measurement was done in Jang lab, DTU, using Nano sight equipment NTA Version: NTA 3.1 Build 3.1.46 with Script SOP Standard Measurement 03-47-19PM 20D. The cell of the equipment must be cleaned and unscrewed totally by ethanol and Millipore water. 500 μL diluted sample was injected three times for three run and the concentration of Nanoparticles was adjusted using water pH 6 if the concentration of samples doesn't fit the analysis. The size distribution data and the size with maximum number of particles were recorded, see FIG. 10.\nScanning Electron Microscopy (SEM): The morphology of the Chitosan nanoparticles (NP) was investigated using a Quanta FEG 3D scanning electron microscope (SEM). Samples were attached on metal stubs with double-sided adhesive carbon tape and coated with 6 nm of gold for better conductivity using a sputter coater (Leica Coater ACE 200). The average NP diameter was calculated using image J analysis software (National Institutes of Health, MD, USA) measured at different NP for each image."}, "[2]": {"tested_on": "autoantibodies in plasma of RA patients, SLE and healthy controls", "test": "ELISA testing of PEP2 and PEP2-nanoconjugates", "format": "binding, human", "conditions": "30 individuals", "experimental": "Prior to ELISA, total amount of protein in each sample was estimated by Bradford method using standard curve of BSA control at known concentration (BioRad). In a maxisorb 96 well plate controls (BSA standard samples at concentrations 2 mg/mL, 1 mg/mL, 0.5 mg/mL and 0.1 mg/mL) and plasma sample were mixed with a Bradford reagent following manufacturer's protocol (BioRad). Plasma samples were used in dilution 1:100. Resulting absorbances at 595 nm were measured on Magellan Tecan microplate reader. Total amount of protein was calculated using standard curve.\nELISA: Maxisorb 96 well plates (NUNC Thermofisher) were coated with nanoparticle antigens/controls at concentration 8 μg/mL in 1×PBS overnight (room temperature; 100 μl/well). After washing with 1×PT (2×300 μl/well, PT: 50 μl Tween-20 in 1 L 1×PBS), the plates were blocked with 1×PTB (1 h, 37° C.; 100 μl/well, PTB: 20 g BSA, 50 μl Tween-20 in 1 L 1×PBS). Incubation with plasma at desired dilution was performed at room temperature for 1.5 h using diluent: 2 g BSA, 50 μl Tween-20 in 1 L 1×PBS (100 μl/well). This was followed by washing (2×300 μl 1×PBS) and incubation with HPR-labelled secondary antibody for 1.5 h at room temperature using same diluent and dilution of the secondary antibody provided by supplier (HPR-conjugated a-aIgG; Sigma). Subsequent washing (2×300 μl PT) and incubation with freshly prepared TMB-H2O2 solution (Sigma; 100 μl/well) was followed by adding a stop solution (1M H2SO4; 50 μl/well) and reading resulting absorbance values at 450 nm on Magellan Tecan microplate reader. Linear range for each antigen was determined via testing series of control dilutions (SLE and healthy controls in dilutions 1:50 to 1:2000). According to the results plasma dilutions 1:100-1:500 were within linear range of the assay for each antigen (R2>0.95)."}, "NZB/W mice": {"tested_on": "NZB/W mice", "test": "In vivo mice assay, disease activity index (DAI)", "conditions": "control treatment, same regimen", "experimental": "For the further in vivo test, a well-described mice model was selected: NZB/W mice, these have been used as a model for autoimmune disease since the early 1960s. Mice of this hybrid cross develop an autoimmune disease resembling human SLE. Nine-week-old NZB/W mice were kindly provided by […] group, Statens Serum Institute, Denmark; they were grown and tested for the presence of anti-dsDNA antibodies as described in example 6. […] Two mice were used for each conjugate. Mice received IV conjugate/control administration (same amount each time), with 12 h intervals for 5 days, and afterwards giving the same dose with 3 day interval over 3 weeks. […] Administration regimen for same as for nanoconjugate complexes: IV in tail vein with 12 h interval for 5 days, and afterwards giving the same dose with 3 day interval. Blood samples were withdrawn at time points: 24 h, 48 h, 1 week, 4 weeks after the beginning of each treatment. Plasma was centrifuged using Qiagen blood storage tubes and stored at -20° C. prior to analyses. ELISA analysis was performed using manufacturer's protocols in sera dilution 1:100 to 1:500. […] At early time points 10 nM conjugate works better than 1 nM."}, "purified SLE-antibodies": {"tested_on": "purified SLE-antibodies", "test": "ELISA selectivity of antigens D7 and D8 for purified SLE antibodies", "format": "binding", "conditions": "vs control samples comprising other antibodies", "experimental": "SLE antibodies from sera were captured by affinity chromatography using NHS-sepharose and modified antigens as specified in table 9. […] Sera was pre-treated with CaCl2)/dextran to remove lipoproteins prior to applying to column. Sera sample was added to column; incubated for 4 min; washed at 0.5 ml/min flow rate with 20 mM PBS, 5 column volumes; and finally SLE antibodies were eluted with 3 column volumes of 100 mM glycine-HCl, 10% dioxane pH 2.5-3.\nStandard ELISA was used to test the selectivity of D7 and D8. ELISA plates comprising antigens D7 and D8, respectively, were tested for their ability to specifically bind the purified SLE-antibodies compared to control samples comprising other antibodies."}, "[3]": {"tested_on": "ACPA in RA sera (vs healthy controls and SLE)", "test": "ELISA screening of citrullinated peptide library", "format": "binding, human", "excerpt": "Citrullinated peptide antigens PEP1-PEP25 (SEQ ID No 9-33) (free amine and carboxy-termini) have been purchased from CALSO, Copenhagen, Denmark, and screened in ELISA of a cohort of 30 RA patients, 30 matched healthy controls and 30 patients with systemic lupus erythematosus. Overall, 16 peptide antigens […], from all the three groups, recognised RA sera."}},
  "note": "Non-standard residues stand in square brackets, D forms with d. No end group written: not given here. Cit = NC(=O)NCCC[C@H](N)C(=O)O; {NH2} = amino modification",
  "data": [
    {"compound": "Oc1ccc(O)cc1", "note": "[HQ, Hydroquinone]", "values": [
      {"measurement": "SLEDAI (SLE disease activity index), course", "setting": "NZB/W F1 mice", "result": "reduces SLEDAI faster; however the disease flares after day 17 in treatment"}
    ]},
    {"compound": "NP1: Chitosan/Hyaluronic acid/PEG/PEP2 nanoconjugate, presumably covalent attachment of peptide via PEG to CS/HA (HHPGIAEFPS[Cit]GKSYSYSKQF; ends and bridges not checked; also: presumably covalently attached via PEG to chitosan/hyaluronic acid nanoconjugate)", "values": [
      {"measurement": "Average nanoparticle size", "setting": "[1]", "result": "100-300 nm"},
      {"measurement": "Positive individuals, %: Disease control SLE", "setting": "[2]", "result": "(7) %"},
      {"measurement": "Positive individuals, %: Healthy", "setting": "[2]", "result": "(3) %"},
      {"measurement": "Positive individuals, %: Patients with RA", "setting": "[2]", "result": "(57) %"},
      {"measurement": "Positive individuals, n: Disease control SLE", "setting": "[2]", "result": 2},
      {"measurement": "Positive individuals, n: Healthy", "setting": "[2]", "result": 1},
      {"measurement": "Positive individuals, n: Patients with RA", "setting": "[2]", "result": 17}
    ]},
    {"compound": "NP2: Chitosan/Hyaluronic acid/PEG/PEP2 nanoconjugate, presumably non-covalent attachment of peptide to CS/HA (HHPGIAEFPS[Cit]GKSYSYSKQF; ends and bridges not checked; also: presumably non-covalently loaded in chitosan/hyaluronic acid/PEG nanoconjugate)", "values": [
      {"measurement": "Average nanoparticle size", "setting": "[1]", "result": 520, "unit": "nm"},
      {"measurement": "Positive individuals, %: Disease control SLE", "setting": "[2]", "result": "(7) %"},
      {"measurement": "Positive individuals, %: Healthy", "setting": "[2]", "result": "(7) %"},
      {"measurement": "Positive individuals, %: Patients with RA", "setting": "[2]", "result": "(53) %"},
      {"measurement": "Positive individuals, n: Disease control SLE", "setting": "[2]", "result": 2},
      {"measurement": "Positive individuals, n: Healthy", "setting": "[2]", "result": 2},
      {"measurement": "Positive individuals, n: Patients with RA", "setting": "[2]", "result": 16}
    ]},
    {"compound": "Gentamicin [reference compound]", "values": [
      {"measurement": "Effect on DAI", "setting": "NZB/W mice", "result": "only a short term drop in DAI"}
    ]},
    {"compound": "NH2-(TCCT)6:(AGGA)6 (TCCTTCCTTCCTTCCTTCCTTCCT; DNA, 5' {NH2}, backbone and methylation of C not given here; further chemistry not fully specified) [Conjugate D8, Pre-annealed amino-modified duplex antigen]", "values": [
      {"measurement": "Selectivity for SLE antibodies", "setting": "purified SLE-antibodies", "result": "selective for SLE antibodies"}
    ]},
    {"compound": "HHP GIA EFP S(Cit)G KSY SYS KQF (HHPGIAEFPS[Cit]GKSYSYSKQF) [PEP2]", "values": [
      {"measurement": "Binding in RA samples (share of patients)", "setting": "[3]; 30 RA patients", "result": 57, "unit": "%"},
      {"measurement": "Binding in healthy controls (share)", "setting": "[3]; 30 matched healthy controls", "result": 0, "unit": "%"},
      {"measurement": "Binding in SLE (share of patients)", "setting": "[3]; 30 patients with systemic lupus erythematosus", "result": 7, "unit": "%"},
      {"measurement": "Positive individuals, %: Disease control SLE", "setting": "[2]", "result": "(7) %"},
      {"measurement": "Positive individuals, %: Healthy", "setting": "[2]", "result": "(0) %"},
      {"measurement": "Positive individuals, %: Patients with RA", "setting": "[2]", "result": "(57) %"},
      {"measurement": "Positive individuals, n: Disease control SLE", "setting": "[2]", "result": 2},
      {"measurement": "Positive individuals, n: Healthy", "setting": "[2]", "result": 0},
      {"measurement": "Positive individuals, n: Patients with RA", "setting": "[2]", "result": 17}
    ]}
  ]
}
